According to ChEMBL document CHEMBL1201862, “PubChem BioAssay data set” (2004):
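1) Cells in 96-well plates. 2) Compound, 48 h, 5 concentrations. 3) Linear interpolation between surrounding doses. 4) Unreached endpoint = highest concentration. GI50 is the concentration that inhibits growth by half.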 Activity calls are given as the source filed them. Cut-off read from the data, not from the text of the source: active = GI50 up to about 1.1 µM and inactive = higher.

How the values were obtained:
Assay in all cases: NCI-60 cell line screen, 48 h
HOP-92 = system: HOP-92
HOP-62 = system: HOP-62
CCRF-CEM = system: CCRF-CEM
SN12C = system: SN12C
UACC-62 = system: UACC-62
SK-MEL-28 = system: SK-MEL-28
MOLT-4 = system: MOLT-4
OVCAR-5 = system: OVCAR-5
IGROV-1 = system: IGROV-1
NCI/ADR-RES = system: NCI/ADR-RES
SNB-19 = system: SNB-19
A549 = system: A549
HL-60 = system: HL-60
K562 = system: K562
SK-MEL-5 = system: SK-MEL-5
HCT-116 = system: HCT-116
NCI-H460 = system: NCI-H460
RXF 393 = system: RXF 393
OVCAR-8 = system: OVCAR-8
COLO 205 = system: COLO 205
SK-OV-3 = system: SK-OV-3
NCI-H522 = system: NCI-H522
DMS-273 = system: DMS-273
NCI-H23 = system: NCI-H23
OVCAR-4 = system: OVCAR-4
SF-539 = system: SF-539
SNB-75 = system: SNB-75
HOP-18 = system: HOP-18
EKVX = system: EKVX
SK-MEL-2 = system: SK-MEL-2
U-251 = system: U-251
OVCAR-3 = system: OVCAR-3
M19-MEL = system: M19-MEL
UACC-257 = system: UACC-257
A498 = system: A498
CAKI-1 = system: CAKI-1
LOX IMVI = system: LOX IMVI
DLD-1 = system: DLD-1
KM12 = system: KM12
UO-31 = system: UO-31
HT-29 = system: HT-29
HCC 2998 = system: HCC 2998
SF-268 = system: SF-268
Malme-3M = system: Malme-3M
KM-20L2 = system: KM-20L2
SW-620 = system: SW-620
MCF7 = system: MCF7
SNB-78 = system: SNB-78
HCT-15 = system: HCT-15
XF498 = system: XF498
DMS-114 = system: DMS-114
SF-295 = system: SF-295
786-0 = system: 786-0
LXFL 529 = system: LXFL 529
TK-10 = system: TK-10
RPMI-8226 = system: RPMI-8226
ACHN = system: ACHN
NCI-H226 = system: NCI-H226
M14 = system: M14

In the case of `COc1ccc2c(c1)OCCc1cn[nH]c1-2`, the GI50 (HOP-92) is reported as 15.4 µM (inactive), the GI50 (HOP-62) is reported as 56.6 µM (inactive) and the GI50 (CCRF-CEM) is reported as 37.4 µM (inactive). For the same molecule, the GI50 (SN12C) was 38.6 µM (inactive), the GI50 (UACC-62) was 22.8 µM (inactive) and the GI50 (SK-MEL-28) was > 100 µM (inactive). For the same molecule, the GI50 (MOLT-4) was 20.8 µM (inactive), the GI50 (OVCAR-5) was 35.7 µM (inactive) and the GI50 (IGROV-1) was 23.4 µM (inactive). The GI50 (NCI/ADR-RES) was 35.3 µM (inactive), the GI50 (SNB-19) was 88.7 µM (inactive) and the GI50 (A549) was 53.8 µM (inactive). For the same molecule, the GI50 (HL-60) was 13.3 µM (inactive), the GI50 (K562) was 41.3 µM (inactive) and the GI50 (SK-MEL-5) was 29.2 µM (inactive). For the same molecule, the GI50 (HCT-116) was 42.4 µM (inactive), the GI50 (NCI-H460) was 31.6 µM (inactive) and the GI50 (RXF 393) was 61.2 µM (inactive). The GI50 (OVCAR-8) was 55.6 µM (inactive), the GI50 (COLO 205) was 29.3 µM (inactive) and the GI50 (SK-OV-3) was 29.7 µM (inactive). For the same molecule, the GI50 (NCI-H522) was 29 µM (inactive), the GI50 (DMS-273) was 32.2 µM (inactive) and the GI50 (NCI-H23) was 38.3 µM (inactive). The GI50 (OVCAR-4) was 48.6 µM (inactive), the GI50 (SF-539) was 32.7 µM (inactive) and the GI50 (SNB-75) was 28.4 µM (inactive). The GI50 (HOP-18) was 30.8 µM (inactive), the GI50 (EKVX) was 4.44 µM (inactive) and the GI50 (SK-MEL-2) was 29.4 µM (inactive). The GI50 (U-251) was 28.8 µM (inactive), the GI50 (OVCAR-3) was 29 µM (inactive) and the GI50 (M19-MEL) was 69 µM (inactive). For the same molecule, the GI50 (UACC-257) was 32.7 µM (inactive), the GI50 (A498) was 28.6 µM (inactive) and the GI50 (CAKI-1) was < 0.01 µM (active). For the same molecule, the GI50 (LOX IMVI) was 31.3 µM (inactive), the GI50 (DLD-1) was 36.7 µM (inactive) and the GI50 (KM12) was 38.9 µM (inactive). The GI50 (UO-31) was 32.6 µM (inactive), the GI50 (HT-29) was 34.8 µM (inactive) and the GI50 (HCC 2998) was 83.4 µM (inactive). The GI50 (SF-268) was 59.4 µM (inactive), the GI50 (Malme-3M) was 38.9 µM (inactive) and the GI50 (KM-20L2) was 54 µM (inactive). For the same molecule, the GI50 (SW-620) was 36.3 µM (inactive), the GI50 (MCF7) was 26.7 µM (inactive) and the GI50 (SNB-78) was 29.1 µM (inactive). For the same molecule, the GI50 (HCT-15) was 35.2 µM, the GI50 (XF498) was 29 µM (inactive) and the GI50 (DMS-114) was 27.3 µM (inactive). For the same molecule, the GI50 (SF-295) was 54.2 µM (inactive).

`Cc1ccc(Sc2ccc(C)cc2[N+](=O)[O-])c([N+](=O)[O-])c1` was tested, and the GI50 (786-0) was > 100 µM (inactive), the GI50 (HOP-92) was > 100 µM (inactive) and the GI50 (HOP-62) was > 100 µM (inactive). The GI50 (CCRF-CEM) was > 100 µM (inactive), the GI50 (SN12C) was > 100 µM (inactive) and the GI50 (UACC-62) was > 100 µM (inactive). For the same molecule, the GI50 (SK-MEL-28) was > 100 µM (inactive), the GI50 (MOLT-4) was > 100 µM (inactive) and the GI50 (OVCAR-5) was > 100 µM (inactive). The GI50 (LXFL 529) was > 100 µM (inactive), the GI50 (IGROV-1) was > 100 µM (inactive) and the GI50 (SNB-19) was > 100 µM (inactive). For the same molecule, the GI50 (A549) was > 100 µM (inactive), the GI50 (HL-60) was > 100 µM (inactive) and the GI50 (K562) was > 100 µM (inactive). For the same molecule, the GI50 (SK-MEL-5) was > 100 µM (inactive), the GI50 (HCT-116) was > 100 µM (inactive) and the GI50 (NCI-H460) was > 100 µM (inactive). The GI50 (RXF 393) was > 100 µM (inactive), the GI50 (OVCAR-8) was > 100 µM (inactive) and the GI50 (COLO 205) was > 100 µM (inactive). For the same molecule, the GI50 (SK-OV-3) was > 100 µM (inactive), the GI50 (NCI-H522) was > 100 µM (inactive) and the GI50 (DMS-273) was > 100 µM (inactive). The GI50 (NCI-H23) was > 100 µM (inactive), the GI50 (OVCAR-4) was > 100 µM (inactive) and the GI50 (SF-539) was > 100 µM (inactive). For the same molecule, the GI50 (SNB-75) was 46.5 µM (inactive), the GI50 (TK-10) was > 100 µM (inactive) and the GI50 (HOP-18) was > 100 µM (inactive). The GI50 (EKVX) was > 100 µM (inactive), the GI50 (RPMI-8226) was > 100 µM (inactive) and the GI50 (SK-MEL-2) was > 100 µM (inactive). For the same molecule, the GI50 (ACHN) was > 100 µM (inactive), the GI50 (U-251) was > 100 µM (inactive) and the GI50 (OVCAR-3) was > 100 µM (inactive). For the same molecule, the GI50 (M19-MEL) was > 100 µM (inactive), the GI50 (UACC-257) was > 10 µM (inactive) and the GI50 (A498) was > 100 µM (inactive). The GI50 (CAKI-1) was > 10 µM (inactive), the GI50 (LOX IMVI) was > 100 µM (inactive) and the GI50 (KM12) was > 100 µM (inactive). For the same molecule, the GI50 (UO-31) was > 100 µM (inactive), the GI50 (HT-29) was > 10 µM (inactive) and the GI50 (NCI-H226) was > 100 µM (inactive). The GI50 (HCC 2998) was > 100 µM (inactive), the GI50 (SF-268) was > 100 µM (inactive) and the GI50 (Malme-3M) was > 100 µM (inactive). The GI50 (KM-20L2) was > 100 µM (inactive), the GI50 (SW-620) was > 100 µM (inactive) and the GI50 (SNB-78) was > 100 µM (inactive). The GI50 (HCT-15) was over 100 µM, the GI50 (XF498) was > 100 µM (inactive) and the GI50 (DMS-114) was > 100 µM (inactive). The GI50 (SF-295) was > 100 µM (inactive) and the GI50 (M14) was > 100 µM (inactive).
